Calls of active or inactive are those of the source. The calls are words filed in the database; no cut-off is given here.
Key:
[1] = system: Staphylococcus aureus; test: Antibacterial activity against Staphylococcus aureus MTCC 902 assessed as inhibition of bacterial growth at 200 ug/ml incubated overnight by spectrophotometry relative to control; type: functional
[2] = system: Enterococcus faecalis; test: Synergistic antibacterial activity against Enterococcus faecalis MTCC 439 assessed as fractional inhibitory concentration index incubated overnight in presence of ciprofloxacin by microdilution checkerboard assay; type: functional
[3] = system: Enterococcus faecalis; test: Antibacterial activity against Enterococcus faecalis MTCC 439 assessed as inhibition of bacterial growth at 200 ug/ml incubated overnight by spectrophotometry relative to control; type: functional
[4] = system: Enterococcus faecalis; test: Antibacterial activity against Enterococcus faecalis MTCC 439 assessed as diameter of zone of inhibition at 500 ug/ml by agar disk diffusion method; type: functional; details: read-out: DIZ
[5] = system: Bacillus subtilis; test: Antibacterial activity against Bacillus subtilis MTCC 736 assessed as diameter of zone of inhibition at 2 times MIC incubated overnight by disk diffusion method; type: functional
[6] = system: Staphylococcus aureus; test: Antibacterial activity against Staphylococcus aureus MTCC 902 assessed as diameter of zone of inhibition at 2 times MIC incubated overnight by disk diffusion method; type: functional
[7] = system: Pseudomonas aeruginosa; test: Ratio of MBC for antibacterial activity against Pseudomonas aeruginosa MTCC 2453 to MIC for bactericidal activity against Pseudomonas aeruginosa MTCC 2453; type: functional
[8] = system: Bacillus subtilis; test: Antibacterial activity against Bacillus subtilis MTCC 736 assessed as inhibition of bacterial growth at 200 ug/ml incubated overnight by spectrophotometry relative to control; type: functional
[9] = system: Bacillus subtilis; test: Ratio of MBC for antibacterial activity against Bacillus subtilis MTCC 736 to MIC for bactericidal activity against Bacillus subtilis MTCC 736; type: functional
[10] = system: Staphylococcus aureus; test: Antibacterial activity against Staphylococcus aureus MTCC 902 assessed as diameter of zone of inhibition at MIC incubated overnight by disk diffusion method; type: functional
[11] = system: Salmonella typhi; test: Antibacterial activity against Salmonella typhi assessed as diameter of zone of inhibition at 0.5 times MIC incubated overnight by disk diffusion method; type: functional, Salmonella enterica subsp. enterica serovar Typhi
[12] = system: Pseudomonas aeruginosa; test: Synergistic antibacterial activity against Pseudomonas aeruginosa MTCC 2453 assessed as inhibition of bacterial growth incubated overnight in presence of ciprofloxacin by serial dilution based spectrophotometer; type: functional
[13] = system: Pseudomonas aeruginosa; test: Antibacterial activity against Pseudomonas aeruginosa MTCC 2453 assessed as inhibition of bacterial growth at 200 ug/ml incubated overnight by spectrophotometry relative to control; type: functional
[14] = Hemolytic activity in human RBC assessed as hemolysis at 1000 ug/ml incubated for 1 hr by absorbance based analysis; type: toxicity, cell-based, Erythrocyte; details: red blood cells (RBC), at 1000 µg/mL, read-out: Activity
[15] = system: Escherichia coli; test: Antibacterial activity against Escherichia coli clinical isolate ECJH3 assessed as diameter of zone of inhibition by disk diffusion assay; type: functional
[16] = system: Escherichia coli; test: Antibacterial activity against Escherichia coli clinical isolate ECJH25 assessed as diameter of zone of inhibition by disk diffusion assay; type: functional
[17] = Hemolytic activity in human RBC assessed as hemolysis upto 500 ug/ml incubated for 1 hr by absorbance based analysis; type: toxicity, cell-based, Erythrocyte; details: red blood cells (RBC), up to 500 µg/mL, read-out: Activity
[18] = system: Escherichia coli; test: Bacteriostatic activity against Escherichia coli MTCC 443 assessed as reduction in bacterial growth at 0.5 to 2 times MIC measured upto 24 hrs by absorbance based assay; type: functional, organism-based
[19] = system: Escherichia coli; test: Antibacterial activity against Escherichia coli clinical isolate ECJH14 assessed as diameter of zone of inhibition by disk diffusion assay; type: functional
[20] = system: Escherichia coli; test: Antibacterial activity against Escherichia coli clinical isolate ECJH15 assessed as diameter of zone of inhibition by disk diffusion assay; type: functional
[21] = system: Escherichia coli; test: Antibacterial activity against Escherichia coli clinical isolate ECJH21 assessed as diameter of zone of inhibition by disk diffusion assay; type: functional
[22] = system: Escherichia coli; test: Antibacterial activity against Escherichia coli clinical isolate ECJH23 assessed as diameter of zone of inhibition by disk diffusion assay; type: functional
[23] = system: Escherichia coli; test: Antibacterial activity against Escherichia coli clinical isolate ECJH4 assessed as diameter of zone of inhibition by disk diffusion assay; type: functional
[24] = system: Escherichia coli; test: Antibacterial activity against Escherichia coli clinical isolate ECJH11 assessed as diameter of zone of inhibition by disk diffusion assay; type: functional
[25] = system: Escherichia coli; test: Antibacterial activity against Escherichia coli clinical isolate ECJH8 assessed as diameter of zone of inhibition by disk diffusion assay; type: functional
[26] = system: Escherichia coli; test: Antibacterial activity against Escherichia coli clinical isolate ECJH16 assessed as diameter of zone of inhibition by disk diffusion assay; type: functional
[27] = system: Escherichia coli; test: Antibacterial activity against Escherichia coli clinical isolate ECJH17 assessed as diameter of zone of inhibition by disk diffusion assay; type: functional
[28] = system: Escherichia coli; test: Antibacterial activity against Escherichia coli clinical isolate ECJH2 assessed as diameter of zone of inhibition by disk diffusion assay; type: functional
[29] = system: Escherichia coli; test: Antibacterial activity against Escherichia coli clinical isolate ECJH12 assessed as diameter of zone of inhibition by disk diffusion assay; type: functional
[30] = system: Escherichia coli; test: Antibacterial activity against Escherichia coli clinical isolate ECJH1 assessed as diameter of zone of inhibition by disk diffusion assay; type: functional
[31] = system: Escherichia coli; test: Antibacterial activity against Escherichia coli clinical isolate ECJH9 assessed as diameter of zone of inhibition by disk diffusion assay; type: functional
[32] = system: Staphylococcus aureus; test: Antibacterial activity against Staphylococcus aureus MTCC 902 assessed as diameter of zone of inhibition at 0.5 times MIC incubated overnight by disk diffusion method; type: functional
[33] = system: Bacillus subtilis; test: Antibacterial activity against Bacillus subtilis MTCC 736 assessed as diameter of zone of inhibition at 0.5 times MIC incubated overnight by disk diffusion method; type: functional
[34] = system: Staphylococcus aureus; test: Bacteriostatic activity against Staphylococcus aureus MTCC 902 assessed as reduction in bacterial growth at 0.5 to 2 times MIC measured upto 24 hrs by absorbance based assay; type: functional, organism-based
[35] = system: Pseudomonas aeruginosa; test: Antibacterial activity against Pseudomonas aeruginosa MTCC 2453 assessed as diameter of zone of inhibition at 0.5 times MIC incubated overnight by disk diffusion method; type: functional
[36] = system: Escherichia coli; test: Antibacterial activity against Escherichia coli clinical isolate ECJH24 assessed as diameter of zone of inhibition by disk diffusion assay; type: functional
[37] = system: Escherichia coli; test: Antibacterial activity against Escherichia coli clinical isolate ECJH18 assessed as diameter of zone of inhibition by disk diffusion assay; type: functional
[38] = system: Escherichia coli; test: Antibacterial activity against Escherichia coli clinical isolate ECJH5 assessed as diameter of zone of inhibition by disk diffusion assay; type: functional
[39] = system: Escherichia coli; test: Antibacterial activity against Escherichia coli clinical isolate ECJH7 assessed as diameter of zone of inhibition by disk diffusion assay; type: functional
[40] = system: Escherichia coli; test: Antibacterial activity against Escherichia coli clinical isolate ECJH20 assessed as diameter of zone of inhibition by disk diffusion assay; type: functional
[41] = system: Escherichia coli; test: Antibacterial activity against Escherichia coli clinical isolate ECJH22 assessed as diameter of zone of inhibition by disk diffusion assay; type: functional
[42] = system: Escherichia coli; test: Antibacterial activity against Escherichia coli clinical isolate ECJH13 assessed as diameter of zone of inhibition by disk diffusion assay; type: functional
[43] = system: Escherichia coli; test: Antibacterial activity against Escherichia coli clinical isolate ECJH6 assessed as diameter of zone of inhibition by disk diffusion assay; type: functional
[44] = system: Escherichia coli; test: Antibacterial activity against Escherichia coli clinical isolate ECJH10 assessed as diameter of zone of inhibition by disk diffusion assay; type: functional

## Clc1ccc2c(NCC/N=C/c3ccc4ccccc4n3)ccnc2c1
[1]
  inhibition at 200 µg/mL: 100%
[2]
  fractional inhibitory concentration index (FICI): 0.312
[3]
  inhibition at 200 µg/mL: 100%
[4]
  zone of inhibition at 500 µg/mL: 10 mm
[5]
  diameter of the inhibition zone (DIZ): 10 mm
[6]
  diameter of the inhibition zone (DIZ): 10 mm
[7]
  Ratio: 2
[8]
  inhibition at 200 µg/mL: 100%
[9]
  Ratio: 4
[10]
  diameter of the inhibition zone (DIZ): 8 mm
[11]
  diameter of the inhibition zone (DIZ): 9 mm
[12]
  MIC: 64 mg/L
[13]
  inhibition at 200 µg/mL: 100%

## O=[N+]([O-])c1ccccc1/C=N/CCNc1ccnc2cc(Cl)ccc12
[14]
  hemolysis at 1 h, 1000 ug/ml: < 20%
[15]
  diameter of the inhibition zone (DIZ): 10 mm
[2]
  fractional inhibitory concentration index (FICI): 0.265
[4]
  zone of inhibition at 500 µg/mL: 13 mm
[16]
  diameter of the inhibition zone (DIZ): 11 mm
[17]
  hemolysis at 1 h: < 10%
[18]
  Activity: Active
[19]
  diameter of the inhibition zone (DIZ): 12 mm
[20]
  diameter of the inhibition zone (DIZ): 11 mm
[21]
  diameter of the inhibition zone (DIZ): 8 mm
[22]
  diameter of the inhibition zone (DIZ): 11 mm
[23]
  diameter of the inhibition zone (DIZ): 13 mm
[24]
  diameter of the inhibition zone (DIZ): 11 mm
[25]
  diameter of the inhibition zone (DIZ): 9 mm
[26]
  diameter of the inhibition zone (DIZ): 10 mm
[27]
  diameter of the inhibition zone (DIZ): 8 mm
[28]
  diameter of the inhibition zone (DIZ): 11 mm
[29]
  diameter of the inhibition zone (DIZ): 12 mm
[5]
  diameter of the inhibition zone (DIZ): 11 mm
[6]
  diameter of the inhibition zone (DIZ): 9 mm
[30]
  diameter of the inhibition zone (DIZ): 11 mm
[31]
  diameter of the inhibition zone (DIZ): 10 mm
[7]
  Ratio: 1
[32]
  diameter of the inhibition zone (DIZ): 8 mm
[33]
  diameter of the inhibition zone (DIZ): 8 mm
[34]
  Activity: Active
[35]
  diameter of the inhibition zone (DIZ): 7 mm
[36]
  diameter of the inhibition zone (DIZ): 13 mm
[9]
  Ratio: 1
[10]
  diameter of the inhibition zone (DIZ): 8 mm
[37]
  diameter of the inhibition zone (DIZ): 11 mm
[11]
  diameter of the inhibition zone (DIZ): 6 mm
[38]
  diameter of the inhibition zone (DIZ): 12 mm
[39]
  diameter of the inhibition zone (DIZ): 10 mm
[40]
  diameter of the inhibition zone (DIZ): 10 mm
[12]
  MIC: 64 mg/L
[41]
  diameter of the inhibition zone (DIZ): 9 mm
[42]
  diameter of the inhibition zone (DIZ): 11 mm
[43]
  diameter of the inhibition zone (DIZ): 10 mm
[44]
  diameter of the inhibition zone (DIZ): 11 mm

— ChEMBL document CHEMBL6078713, “Synthesis and mechanistic studies of 4-aminoquinoline-Isatin molecular hybrids and Schiff's bases as promising antimicrobial agents” (Eur J Med Chem, 2025)
